Where a SMILES comes first, the peptide text is derived from it. The star is where a group is joined. Palmitoyl = CCCCCCCCCCCCCCCC(=O)*
What was measured:
[1] = Stability of PA nanostructures in plasma (fluorescence recovery); format: in vitro ADME, human
Experimental: ICG or Cy5 conjugated PAs were dissolved in PBS (10 mM, pH 7.4) at a concentration of 1 or 100 µM, and 90 µL aliquots of these solutions were added to a 96 well plate (4 wells for each PA). Then, 10 µL of pooled human plasma was added to each well, and fluorescence spectra of ICG or Cy5 were recorded using a microplate reader (TECAN Spark 20 M) at different time points.

[2] = test system: 4T1 mouse breast cancer cells; assay: Cellular uptake of Cy5 labeled PAs; format: cell-based; conditions: 10 µM Cy5‐PA, 2 h incubation at 37 °C
Experimental: To compare the uptake of SA‐E and SA‐K, 1 × 10^5 4T1 cells were grown to near confluency (1–2 days) in 96 well plates with black walls and flat glass bottom. 100% Cy5 conjugated PAs (20 or 10 µM) or 10% Cy5 conjugated PA micelles (10 µM Cy5‐PAs mixed with 90 µM maleimide blocked labeled PAs) were preincubated in 10% FBS containing RPMI for 30 min at 37 °C, wells were aspirated, and 100 µL of media containing PAs were added. The plate was incubated for 30 min for the experiments with 100% Cy5 conjugated PAs. Media were aspirated, wells were washed 3x with 150 µL sterile PBS, and then 100 µL RPMI containing 10% FBS was added to each well. The plate was incubated for 1 h at 37 °C. For 10% and 100% Cy5 micelle uptake comparison, plate was incubated for 2 h at 37 °C with PAs. Then, media containing PAs were aspirated and washed with PBS, as above. Cell nuclei were stained with Hoechst (1:5000 dilution in PBS) for 5 min and then removed. 100 µL of phenol red free RPMI containing 10% FBS was added to each well. […] The microscope incubator was preheated for 30 min to reach 35 °C prior to imaging.
To study the uptake of SA‐E or SA‐K micelles (10% or 100% Cy5 micelles) or No‐SA over time, 4T1 cells were grown to near confluency in a 96 well plate as described above. Cy5 conjugated 100% Cy5 conjugated PAs (20 µM), 10% Cy5 conjugated PAs (10 µM Cy5), or No‐SA (20 µM) or were preincubated in 10% FBS containing RPMI for 30 min at 37 °C. Cell nuclei were stained with Hoechst stain as above. Cell membranes were stained (CellBrite 488, 1:1000 in 10% FBS containing RPMI) for 30 min at 37 °C. Wells were aspirated, and 100 µL of PAs were added to the wells for ≈1 min. Wells were washed with sterile PBS (3x, 150 µL), and Confocal images were taken at different time points (up to 2 h) after PA or No‐SA addition as described above using a 60x objective.

[3] = test system: TRAMP‐C2 mouse prostate cancer cells; assay: Uptake of SA‐E by wild type or SR‐B1 knockout cells; format: cell-based; conditions: Cy5 SA‐E 20 µM, 10% FBS DMEM
Experimental: For SR‐B1 studies, an equal number of wells in a black walled, glass bottom 96‐well plate were seeded with either wild type or SR‐B1‐/‐ TRAMP‐C2 cells and grown to near confluency, as above. The Cy5 conjugated SA‐E was diluted in 10% FBS containing DMEM and incubated at room temperature for 30 min. All media from the wells was aspirated. Four wells of each cell type received 100 µL aliquots with SA‐E (20 µM). The plate was incubated for 30 min, as above. Following the methods above, wells were washed with PBS, media was added, and the plate was returned to the incubator for 1 h. Finally, Hoechst staining and fluorescence imaging were performed using a Leica Thunder DMi8 fluorescent microscope, as described above.

[4] = test system: HeLa human cervical cancer cells; assay: Uptake of SA‐E by wild type or LDL‐R knockout cells; format: cell-based; conditions: Cy5 SA‐E 20 µM, 10% FBS DMEM
Experimental: For LDL‐R studies, 2 × 10^5 wild type or LDL‐R‐/‐ HeLa human cervical cancer cells were grown to near confluency in 96 well plates with black walls and flat glass bottom. Cy5 conjugated SA‐E (20 µM) was preincubated in DMEM containing 10% FBS for 30 min at 37 °C. Wells were aspirated, and 100 µL of the SA‐E containing DMEM was added. The plate was incubated for 30 min, as above. The wells were washed with sterile PBS, as above, media was added, and the plate was returned to the incubator for 1 h. Wells were aspirated, and nuclei were stained with Hoechst as above. Wells were aspirated, and 100 µL of phenol red free DMEM with 10% FBS was added to each well. Cells were then imaged for Cy5 conjugated SA‐E with a Zeiss Apotome 3 microscope at 20x and 63x objectives using Zen software.

[5] = Clearance study (urine and stool); format: in vivo, mouse; conditions: 50 nmol IV
Experimental: Six Balb/c mice were intravenously injected with 100 µL of either ICG‐conjugated SA‐E or PBS, with three mice in each group. Urine and stool samples were collected from each mouse at different time points up to 7 days. […] Urine from healthy Balb/c mice was collected and pooled to generate a calibration curve. Fluorescence of stool samples was detected using an IVIS (PerkinElmer).

TRAMP‐C2 tumors = assay: Tumor accumulation in wild type or SR‐B1‐/‐ tumors; format: in vivo, mouse; conditions: 50 nmol IV, 2 days
Experimental: (§1) For tumor accumulation studies in subcutaneous (HCT‐116, A375, TRAMP‐C2, MC38, LLC1, RG2, PDX cell lines, wild type or SR‐B1 ‐/‐ TRAMP‐C2, and wild type or LDL‐R ‐/‐ HeLa), intradermal (A375), or fat pad (4T1 and MCF‐7) tumors, cells were implanted as described above. When the tumors reached a size around ≈0.3–1 cm, mice were injected intravenously with 100 µL of ICG conjugated PAs (in PBS, 0.5 mM) or free ICG (in PBS, 0.5 mM). After probe injections, mice were imaged using the IVIS Spectrum (PerkinElmer) with excitation and emission wavelengths of 745 and 820 nm, respectively, at the specified time points. Living Image (PerkinElmer) software was used for all analyses. For MMTV mice experiments, mice were injected intravenously weekly with SA‐E (100 µL PBS, 0.5 mM) between 71 and 85 days of age and imaged 2 days later in the IVIS. […] SA‐E was injected intravenously (100 µL PBS, 0.5 mM), 2 days later the intestinal tissue was harvested, washed, and analyzed in the IVIS for ICG.

[6] = test system: xenograft, syngeneic, transgenic and PDX tumor models; assay: Tumor accumulation in a broad range of tumor models; format: in vivo, mouse; conditions: 2 days after 50 nmol IV
Experimental: as §1

CCCCCCCCCCCCCCCC(=O)NCC(=O)NCC(=O)NCC(=O)N[C@@H](Cc1c[nH]cn1)C(=O)N[C@@H](C)C(=O)N[C@@H](C)C(=O)N[C@@H](CC(N)=O)C(=O)NCC(=O)N[C@@H](CCC(=O)O)C(=O)N[C@@H](CCC(=O)O)C(=O)N[C@@H](CS)C(=O)N[C@@H](CCC(=O)O)C(=O)O [SA‐E] (Palmitoyl-GGGHAANGEECE-OH)
increase in Cy5 fluorescence in plasma relative to SA‐K ([1]; Cy5 conjugated PAs 100 µM, 10% human plasma, 1 h): ≈ 10 fold | increase in ICG fluorescence in plasma relative to SA‐K (micelle disassembly) ([1]; ICG conjugated PAs 1 or 100 µM in PBS pH 7.4 with 10% pooled human plasma, over 2 h, plate reader, larger and more rapid than SA‐K): approximately three‐fold | uptake of 10% Cy5 micelles relative to 100% Cy5 micelles [2]: no significant difference | uptake in SR‐B1‐/‐ cells compared to wild type [3]: did not observe any significant change | uptake in LDL‐R‐/‐ cells compared to wild type [4]: did not observe any significant change | fluorescence in urine samples ([5]; any time point up to 7 days, plate reader): No fluorescence signal was detected | decline of ICG signal in stool ([5]; Balb/c mice, IVIS): mostly diminished at 2 days | time of peak ICG signal in stool ([5]; Balb/c mice, IVIS, n = 3): 6 h | tumor accumulation, SR‐B1 knockout versus wild type tumors (TRAMP‐C2 tumors): not needed for tumor accumulation | tumor accumulation across models [6]: highly specific tumor accumulation in all 13 tumor models

— publication PMC12801355, “Peptide Amphiphiles Hitchhike on Endogenous Biomolecules for Enhanced Cancer Imaging and Therapy” (Advanced Materials (Deerfield Beach, Fla.), 2025)
